Experimental data taken from US4407818A, “Anti viral, anti bacterial and/or anti fungal composition containing metal oxyalkylate” (Bio-Systems Research, Inc., priority 1981, dated 1983).
Where “and” joins values, the source holds several entries; their conditions need not be identical. Equal values may be shown once. Entries after “also recorded” stand apart in the source; their conditions may differ.

Legend:
Echo 5 = assay: CPE trial on Echo 5 (Examples 12-14); assay type: cell-based; details: in words
HSV-1 [1] = assay: Plaque assay, HSV-1 (Examples 8-11); assay type: cell-based, Herpes simplex virus type I
Polio 1 = assay type: cell-based; details: in words; CPE trial
HSV-1 [2] = assay: CPE trial on HSV-1 (Examples 15-16); assay type: cell-based, Herpes simplex virus type I; details: in words
HSV-2 [3] = assay: Plaque assay, HSV-2 (Examples 5-7); assay type: cell-based, Herpes simplex virus type II
Adenovirus type 4 = assay: CPE trial on Adenovirus type 4 using KB cells (Example 17); assay type: cell-based
HSV-2 [4] = assay: CPE trial on HSV-2 (Examples 15-16); assay type: cell-based, Herpes simplex virus type II
Staphylococcus aureus [5] = assay: Filter paper disc bacterial inhibition test on agar plates (Example 1); assay type: cell-based; details: for Clear Area, Average: average of plates 1-4; for Clear Area: single plate, overnight at 37° C.
Procedure: (§1) A stock (1%) solution is prepared by dissolving 0.1 gm of zinc ocyacetate in 10 ml of water. A 1/2 dilution (0.5% solution) is made by admixing 5 ml of the stock solution and 5 ml of water. A 1/4 dilution (0.25% solution) is made by admixing 5 ml of the 0.5% solution and 5 ml of water. A 1/10 dilution (0.1% solution) is made by admixing 1 ml of the stock (1%) solution and 9 ml of water. Fine filter paper discs of 1 cm diameter are placed in each of four clean petri dishes. In dish #1, 0.1 ml of the 1% solution is dropped onto each filter disc and allowed to air dry. The same is done in dish #2 except that the 0.5% solution is used. The same is done on dishes #3 and #4 except that the 0.25 and 0.1% solutions, respectively,are used. One ml of a previously prepared 1×10^-4 dilution of a broth bacterial culture (Staphylococcus aureus) is then spread evenly over the entire surface of four agar plates. At the 12 o'clock position on each of the agar plates, a disc from dish #1 (1% solution) is placed. Discs from dishes #2, #3 and #4 are similarly placed at the 3 o'clock, 6 o'clock, and 9 o'clock positions, respectively, of each of the four plates. Each disc is gently pressed to enure good contact with the agar surface. For comparison purposes, a further stock solution of zinc sulphate (1%) is made up and an identical series of tests made. Each plate is incubated overnight at 37° C. and the area of inhibition--the clear area around each disc--is measured.

Bread mold = assay: Disc growth inhibition of bread mold on nutrient plate (Example 2); assay type: cell-based
Procedure: as §1, with “measured. Bread mold is innoculated on a nutrient plate.” for “measured.”

[6] = tested on: Herpes simplex virus type 1 (HSV-1); assay: Neutralization of viral cytopathogenic effect (CPE) on BGM cells, HSV-1 (Example 3); assay type: cell-based
Procedure: (§2) Evaluation of the compound is made using a simple neutralization of viral cytopathogenic effect (CPE) on Buffalo Green Monkey (BGM) cells using two tubes for each dilution of virus. […] In order to evaluate zinc oxyacetate, the compound (or the compound in equal weight admixture with lauryl alcohol) is incubated for 1 hour with the virus prior to making ten-fold serialdilutions and innoculating the BGM tubes. The amount of virus used is 0.1 ml. The amount of test material used is 0.1 ml of a solution containing 0.1% of Tween 80 and 0.1% of the test material.

Staphylococcus aureus [7] = assay: Filter paper disc bacterial inhibition test on agar plates (Example 1); assay type: cell-based; details: .01% solution (as headed); for Clear Area, Average: average of plates 1-4; for Clear Area: single plate, overnight at 37° C., -- counted as zero in the average
Microsporum canis = assay: Inhibition of molds, size of cleared area (Example 4); assay type: cell-based; details: 0.1 ml of a 1% solution containing 0.1% Tween 80
Procedure: (§3) Bread mold is innoculated on a nutrient plate.
(§4) In a test similar to that of Example 2, zinc oxyacetate is tested for inhibition of four bread molds. The amount of zinc oxyacetate is 0.1 ml of a 1% solution containing 0.1% Tween 80. The amount of mold is 0.1 ml.

Candida albicans = assay: as above; assay type: cell-based; details: 0.1 ml of a 1% solution containing 0.1% Tween 80
Procedure: as §3, §4

Trichophyton rubrum = assay: as above; assay type: cell-based; details: 0.1 ml of a 1% solution containing 0.1% Tween 80
Procedure: as §3, §4

[8] = tested on: Trichophyton mentagrophytes; assay: as above; assay type: cell-based; details: 0.1 ml of a 1% solution containing 0.1% Tween 80
Procedure: as §3, §4

HSV-2 [9] = assay: Neutralization of viral cytopathogenic effect (CPE) on BGM cells, HSV-2 (Example 3); assay type: cell-based, Herpes simplex virus type II
Procedure: as §2

[10] = Visible precipitate under sensitivity disc (Example 1); assay type: physicochemical; details: 1% and 0.50% concentration
Procedure: as §1, with “For comparison purposes, a further stock solution of zinc sulphate (1%) is made up and an identical series of tests made.” left out

CC(=O)[O-].CC(=O)[O-].CC(=O)[O-].CC(=O)[O-].CC(=O)[O-].CC(=O)[O-].[Mn+2].[Mn+2].[Mn+2].[Mn+2].[O-2] [Manganese compound, Magnanese oxyacetate]
effectiveness against Echo 5 (Echo 5): not effective | plaque assay result, HSV-1 (HSV-1 [1]; HSV-1 10^-2 (Example 8), 0% methylcellulose overlay, control TNC (too numerous to count)): 90 | plaque assay result, HSV-1 (HSV-1 [1]; HSV-1 10^-2 (Example 8), 1.5% methylcellulose overlay, control ND, Irr = irregular results, TNC = too numerous to count): Irr | plaque assay result, HSV-1 (HSV-1 [1]; HSV-1 10^-2 (Example 8), 2% methylcellulose overlay, control ND, Irr = irregular results, TNC = too numerous to count): Irr | plaque assay result, HSV-1 (HSV-1 [1]; HSV-1 10^-3 (Example 9), 0% methylcellulose overlay, control 34): 11 | plaque assay result, HSV-1 (HSV-1 [1]; HSV-1 10^-3 (Example 9), 1.5% methylcellulose overlay, control TNC): 45 | plaque assay result, HSV-1 (HSV-1 [1]; HSV-1 10^-3 (Example 9), 2% methylcellulose overlay, control 115): 46 | plaque assay result, HSV-1 (HSV-1 [1]; HSV-1 10^-4 (Example 10), 0% methylcellulose overlay, control 6): 4 | plaque assay result, HSV-1 (HSV-1 [1]; HSV-1 10^-4 (Example 10), 1.5% methylcellulose overlay, control 38): 5 | plaque assay result, HSV-1 (HSV-1 [1]; HSV-1 10^-4 (Example 10), 2% methylcellulose overlay, control 10): 5 | plaque assay result, HSV-1 (HSV-1 [1]; HSV-1 10^-5 (Example 11), 0% methylcellulose overlay, control 5): 0 | plaque assay result, HSV-1 (HSV-1 [1]; HSV-1 10^-5 (Example 11), 1.5% methylcellulose overlay, control 3): 0 | plaque assay result, HSV-1 (HSV-1 [1]; HSV-1 10^-5 (Example 11), 2% methylcellulose overlay, control 3): 0 | solubility (in words) (Solubility in 2% FBS-MEM): readily soluble | effectiveness against Polio 1 (Polio 1): not effective | effectiveness against HSV-1 (HSV-1 [2]): probably not effective against HSV-1 | plaque assay result, HSV-2 (HSV-2 [3]; HSV-2 10^-1 (Example 5), control ND): Toxic | plaque assay result, HSV-2 (HSV-2 [3]; HSV-2 10^-2 (Example 6), control 39): 4 | plaque assay result, HSV-2 (HSV-2 [3]; HSV-2 10^-3 (Example 7), control 5): 0 | inhibition of HSV-2 (plaque assay) (HSV-2 [3]; in words): less effective than the zinc composition; also recorded: both substances inhibited HSV-2 | titer, Adenovirus type 4 (Adenovirus type 4; in all cases): 10^-3 | effectiveness in inhibiting the CPE of Adenovirus type 4 (Adenovirus type 4; in words): neither the test compound nor Zn carrier are effective | size of the BGM cells (HSV-2 [4]; 10^-1 dilution of HSV-2): increase in the size of the BGM cells | inhibition of HSV-2 (HSV-2 [4]; 10^-1 dilution of HSV-2, BGM cells): inhibit the virus completely | inhibition of HSV-2 (HSV-2 [4]; 10^-2 and 10^-3 dilution, one tube in each dilution, later typical syncytial formation): early inhibition of virus | CPE result (titer column), HSV-2 (HSV-2 [4]; BGM cells, control 10^-2.5): Inhibition | effectiveness against HSV-2 (HSV-2 [4]; in words, CPE trial): effective against HSV-2 | type of action against HSV-2 (viristatic / viricidal) (HSV-2 [4]; in words, CPE trial): apparent viristatic action

CC(=O)O.CC(=O)O.CC(=O)O.CC(=O)O.CC(=O)O.CC(=O)O.[O-2].[Zn+2].[Zn+2].[Zn+2].[Zn+2] [Zinc oxyacetate, zibnc, hexakis(acetato) oxotetra]
Clear Area, Average (Staphylococcus aureus [5]; 1% solution): 1.82 cm | Clear Area (Staphylococcus aureus [5]; 1% solution): 1.85 cm and 1.80 cm and 1.78 cm | Clear Area, Average (Staphylococcus aureus [5]; .25% solution): 1.37 cm | Clear Area (Staphylococcus aureus [5]; .25% solution): 1.32 cm and 1.35 cm and 1.40 cm and 1.42 cm | Clear Area, Average (Staphylococcus aureus [5]; .5% solution): 1.64 cm | Clear Area (Staphylococcus aureus [5]; .5% solution): 1.70 cm and 1.52 cm and 1.61 cm and 1.72 cm | bacteriostatic qualities (Staphylococcus aureus [5]; in words, versus zinc sulphate): bacteriostatic qualities comparable to those of zinc sulphate | growth inhibition of bread mold (Bread mold; 1% solution): good growth inhibition | growth inhibition of bread mold (Bread mold; less concentrated solution): does not noticeably inhibit growth | growth inhibition of bread mold (Bread mold; undiluted material): good growth inhibition | Titer based on 4+(100%) CPE, HSV-1 ([6]; BGM cells, 1 hour preincubation with virus, 0.1% test material, 0.1% Tween 80, control 10^-4): 10^-3 | effectiveness in inhibiting the virus ([6]; in words, HSV-1, BGM cells): effective in inhibiting the virus | log inhibition, HSV-1 ([6]; titer reduction versus control): 1 log | Clear Area, Average (Staphylococcus aureus [7]): 0.31 cm | Clear Area (Staphylococcus aureus [7]): 1.25 cm | Size of cleared area, Microsporum canis (Microsporum canis): 8 mm | Size of cleared area, Candida albicans (Candida albicans): 9 mm | Size of cleared area, Trichophyton rubrum (Trichophyton rubrum): 5 mm | Size of cleared area, Trichophyton mentagrophytes [8]: 9 mm | Titer based on 4+(100%) CPE, HSV-2 (HSV-2 [9]; BGM cells, 1 hour preincubation with virus, 0.1% test material, 0.1% Tween 80, control 10^-2): 0 | effectiveness in inhibiting the virus (HSV-2 [9]; in words, HSV-2, BGM cells): effective in inhibiting the virus | log inhibition, HSV-2 (HSV-2 [9]; titer reduction versus control): 2 log

O=S(=O)([O-])[O-].[Zn+2] [Zinc sulphate, zinc sulphate, reference compound]
Clear Area, Average (Staphylococcus aureus [5]; 1% solution): 1.66 cm | Clear Area (Staphylococcus aureus [5]; 1% solution): 1.80 cm and 1.72 cm and 1.71 cm and 1.42 cm | Clear Area, Average (Staphylococcus aureus [5]; .25% solution): 1.37 cm | Clear Area (Staphylococcus aureus [5]; .25% solution): 1.40 cm and 1.39 cm and 1.31 cm | Clear Area, Average (Staphylococcus aureus [5]; .5% solution): 1.44 cm | Clear Area (Staphylococcus aureus [5]; .5% solution): 1.50 cm and 1.45 cm and 1.41 cm and 1.40 cm | visible precipitate under each sensitivity disc [10]: a visible precipitate formed under each sensitivity disc | Clear Area, Average (Staphylococcus aureus [7]): 0.61 cm | Clear Area (Staphylococcus aureus [7]): 1.22 cm and 1.21 cm
